Assay: Dissolution of drug in ionic liquid checked under a microscope
Type: physicochemical
Conditions: 1.4 mg in 0.5 mL ionic liquid formulation, heated at 65° C. for 10 minutes
Description: According to the method of Example 1, the preparations of Examples 1, 4 and 5 comprising Lixisenatide as poorly absorbable drug were prepared. Specifically, the ingredients were mixed in the amounts (molar ratios) shown in the above Table 1 to prepare each ionic liquid formulation. Lixisenatide (1.4 mg) was added into the prepared ionic liquid formulation (0.5 mL) and the mixture was heated and dissolved at 65° C. for 10 minutes to prepare each preparation.
When Lixisenatide was mixed with an ionic liquid and checked the state under a microscope, it was determined that Lixisenatide was dissolved because the crystal of Lixisenatide disappeared by heating.
According to the method of Example 1, the preparations of Preparation Examples 1 to 3 and 22 to 23 comprising Lixisenatide as poorly absorbable drug were prepared. Specifically, the ingredients were mixed in the amounts (molar ratios) shown in Table 2 below to prepare each ionic liquid formulation, Semaglutide (1.4 mg) was added into the prepared ionic liquid formulation (0.5 mL), and the mixture was heated and dissolved at 65° C. for 10 minutes to prepare each preparation.
When Semaglutide was mixed with an ionic liquid and checked the state under a microscope, it was determined that Semaglutide was dissolved because the crystal of Semaglutide disappeared by heating.

state of the drug mixed with an ionic liquid under a microscope	Substance
dissolved	Lixisenatide
dissolved	Semaglutide
